Patent US10722520B2, “Heterocyclic compounds and their use in preventing or treating bacterial infections” (MUTABILIS, priority 2016, dated 2020)

Tests used:
[1] = test system: E. cloacae P99; assay: MIC of compound alone, broth microdilution; assay type: cell-based; details: strain P99; compound alone
Outline: (§1)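 Exponential-phase inoculum, 5×10^5 cfu/mL final, in cation-supplemented MHB; 35° C in air for 16-20 h. MIC: lowest concentration giving no visible growth.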

[2] = test system: E. coli 190317; assay: MIC of compound alone, broth microdilution; assay type: cell-based; details: strain 190317; compound alone
Outline: as §1

[3] = test system: K. pneumoniae 6299; assay: MIC of compound alone, broth microdilution; assay type: cell-based; details: strain 6299; compound alone
Outline: as §1

[4] = test system: K. pneumoniae BAA-1898; assay: MIC of compound alone, broth microdilution; assay type: cell-based; details: strain BAA-1898; compound alone
Outline: as §1

[5] = test system: P. aeruginosa CIP107051; assay: MIC of compound alone, broth microdilution; assay type: cell-based; details: strain CIP107051; compound alone
Outline: as §1

[6] = test system: E. cloacae P99; assay: MIC of ceftazidime (CAZ) at fixed concentration of compound (synergy), broth microdilution; assay type: cell-based; details: strain P99; MIC of CAZ, compound fixed at 4 μg/mL
Method: (§2) Log phase bacterial suspensions were adjusted to a final density of 5×10^5 cfu/mL in cation-adjusted Mueller-Hinton broth (Becton-Dickinson) and added to each well (98 μL). Microplates were incubated for 16-20 h at 35° C. in ambient air. The MIC of the compounds was defined as the lowest concentration of said compounds that prevented bacterial growth as read by visual inspection.

[7] = test system: E. coli 190317; assay: as above; assay type: cell-based; details: strain 190317; MIC of CAZ, compound fixed at 4 μg/mL
Method: as §2

[8] = test system: K. pneumoniae 6299; assay: as above; assay type: cell-based; details: strain 6299; MIC of CAZ, compound fixed at 4 μg/mL
Method: as §2

[9] = test system: K. pneumoniae BAA-1898; assay: as above; assay type: cell-based; details: strain BAA-1898; MIC of CAZ, compound fixed at 4 μg/mL
Method: as §2

[10] = test system: P. aeruginosa CIP107051; assay: as above; assay type: cell-based; details: strain CIP107051; MIC of CAZ, compound fixed at 4 μg/mL
Method: as §2

[11] = biological target: AmpC (P99) (Enterobacter cloacae, UniProt P05364); details: read-out: IC50 β-lactamase AmpC (P99); class (C); nitrocefin 200 μM, 30-min pre-incubation, enzyme 0.2 nM
[12] = biological target: CMY-37 (Citrobacter freundii, UniProt P05193); details: read-out: IC50 β-lactamase CMY-37; class (C); nitrocefin 200 μM, 30-min pre-incubation, enzyme 0.2 nM
[13] = biological target: AmpC (PAE) (Pseudomonas aeruginosa, UniProt P24735); details: read-out: IC50 β-lactamase AmpC (PAE); class (C); nitrocefin 200 μM, 30-min pre-incubation, enzyme 0.4 nM
[14] = biological target: OXA-15 (Pseudomonas aeruginosa, UniProt Q51574); details: read-out: IC50 β-lactamase OXA-15; class (D); nitrocefin 200 μM, 30-min pre-incubation, enzyme 0.4 nM
[15] = biological target: TEM-1 (Escherichia coli, UniProt P62593); details: read-out: IC50 β-lactamase TEM-1; class (A); nitrocefin 200 μM, 30-min pre-incubation, enzyme 0.1 nM
[16] = biological target: SHV-1 (Klebsiella pneumoniae, UniProt P0AD64); details: read-out: IC50 β-lactamase SHV-1; class (A); nitrocefin 200 μM, 30-min pre-incubation, enzyme 0.075 nM
[17] = biological target: CTX-M-15 (Escherichia coli, UniProt Q9EXV5); details: read-out: IC50 β-lactamase CTX-M-15; class (A); nitrocefin 200 μM, 30-min pre-incubation, enzyme 0.4 nM
[18] = biological target: KPC-2 (Klebsiella pneumoniae, UniProt Q9F663); details: read-out: IC50 β-lactamase KPC-2; class (A); nitrocefin 200 μM, 30-min pre-incubation, enzyme 1 nM
[19] = biological target: OXA-1 (Escherichia coli, UniProt P13661); details: read-out: IC50 β-lactamase OXA-1; class (D); nitrocefin 200 μM, 30-min pre-incubation, enzyme 0.2 nM
[20] = biological target: OXA-11 (Pseudomonas aeruginosa, UniProt Q06778); details: read-out: IC50 β-lactamase OXA-11; class (D); nitrocefin 200 μM, 30-min pre-incubation, enzyme 1.2 nM
[21] = biological target: OXA-48 (Klebsiella pneumoniae, UniProt Q6XEC0); details: read-out: IC50 β-lactamase OXA-48; class (D); nitrocefin 200 μM, 30-min pre-incubation, enzyme 0.3 nM

| SMILES | MIC compounds of the invention alone [1] | MIC compounds of the invention alone [2] | MIC compounds of the invention alone [3] | MIC compounds of the invention alone [4] | MIC compounds of the invention alone [5] | MIC combination of CAZ and compounds of the invention at 4 μg/mL [6] | MIC combination of CAZ and compounds of the invention at 4 μg/mL [7] | MIC combination of CAZ and compounds of the invention at 4 μg/mL [8] | MIC combination of CAZ and compounds of the invention at 4 μg/mL [9] | MIC combination of CAZ and compounds of the invention at 4 μg/mL [10] | IC50 [11] | IC50 [12] | IC50 [13] | IC50 [14] | IC50 [15] | IC50 [16] | IC50 [17] | IC50 [18] | IC50 [19] | IC50 [20] | other results |
| --- | --- | --- | --- | --- | --- | --- | --- | --- | --- | --- | --- | --- | --- | --- | --- | --- | --- | --- | --- | --- | --- |
| NCc1cnn(C2=CC3CN(C2)C(=O)N3OS(=O)(=O)[O-])c1.O=C(O)C(F)(F)F.[Na+] (stereo not drawn) [Example 15, sodium and 2,2,2-trifluoroacetate [3-(4-methyleneammoniumpyrazol-1-yl)-7-oxo-1,6-diazabicyclo[3.2.1]oct-3-en-6-yl]sulfate] | 8 µg/mL | 2 µg/mL | >32 µg/mL | >32 µg/mL | 16 µg/mL | ≤0.25 µg/mL | <0.25 µg/mL | 0.25 µg/mL | ≤0.25 µg/mL | 2 µg/mL | 80 nM | 76 nM | 360 nM | 49 nM | 0.79 nM | 6.5 nM | 1.5 nM | 120 nM | 700 nM | 270 nM | IC50 [21]: 18 nM |
| N#Cc1ccn(C2=CC3CN(C2)C(=O)N3OS(=O)(=O)[O-])n1.[Na+] (stereo not drawn) [Example 17, sodium [3-(3-carbonitrilepyrazol-1-yl)-7-oxo-1,6-diazabicyclo[3.2.1]oct-3-en-6-yl]sulfate] | 16 µg/mL | 4 µg/mL | >32 µg/mL | 16 µg/mL | >32 µg/mL | 1 µg/mL | <0.25 µg/mL | 0.25 µg/mL | 0.25 µg/mL | 8 µg/mL | 30 nM | 87 nM | 280 nM | 30 nM | 0.23 nM | 1 nM | 0.76 nM | 3.7 nM | 100 nM | 63 nM | IC50 [21]: 5.8 nM |
| O=C1N2CC(n3cc(N4CCOCC4)cn3)=CC(C2)N1OS(=O)(=O)[O-].[Na+] (stereo not drawn) [Example 20] | >32 µg/mL | >32 µg/mL | >32 µg/mL | >32 µg/mL | >32 µg/mL | >128 µg/mL | 128 µg/mL | >128 µg/mL | >128 µg/mL | >128 µg/mL | 230 nM | 140 nM | 910 nM | 140 nM | 1.3 nM | 5.1 nM | 3 nM | 120 nM | 6200 nM | 7100 nM | IC50 [21]: 68 nM |
| CC(=O)Nc1cnn(C2=CC3CN(C2)C(=O)N3OS(=O)(=O)[O-])c1.[Na+] (stereo not drawn) [Example 21, sodium [3-(4-acetamidepyrazol-1-yl)-7-oxo-1,6-diazabicyclo[3.2.1]oct-3-en-6-yl]sulfate] | >32 µg/mL | 16 µg/mL | >32 µg/mL | >32 µg/mL | >32 µg/mL | 16 µg/mL | 0.25 µg/mL | 4 µg/mL | 64 µg/mL | 4 µg/mL | 230 nM | 99 nM | 320 nM | 290 nM | 6.1 nM | 24 nM | 3.7 nM | 270 nM | 2100 nM | 1400 nM | IC50 [21]: 45 nM |
| Cc1cc(C(N)=O)nn1C1=CC2CN(C1)C(=O)N2OS(=O)(=O)[O-].[Na+] (stereo not drawn) [Example 23, sodium (7-oxo-3-(3-carboxamide-5-methyl-pyrazol-1-yl)-1,6-diazabicyclo[3.2.1]oct-3-en-6-yl) sulfate] | >32 µg/mL | >32 µg/mL | >32 µg/mL | >32 µg/mL | >32 µg/mL | 8 µg/mL | 0.5 µg/mL | 4 µg/mL | 4 µg/mL | 16 µg/mL | 38 nM | 54 nM | 220 nM | 760 nM | 0.19 nM | 0.36 nM | 1 nM | 5.7 nM | 1500 nM | 1100 nM | IC50 [21]: 110 nM |
| NCCONC(=O)c1cnn(C2=CC3CN(C2)C(=O)N3OS(=O)(=O)[O-])c1.O=C(O)C(F)(F)F.[Na+] (stereo not drawn) [Example 24, sodium and 2,2,2-trifluoroacetate [7-oxo-3-[4-carboxamide,N-(2-ammoniumethoxy)-pyrazol-1-yl]-1,6-diazabicyclo[3.2.1]oct-3-en-6-yl]sulfate] | 16 µg/mL | 2 µg/mL | >32 µg/mL | >32 µg/mL | >32 µg/mL | 0.25 µg/mL | <0.25 µg/mL | 0.25 µg/mL | 1 µg/mL | 4 µg/mL | 12 nM | 16 nM | 160 nM | 48 nM | 0.37 nM | 2.4 nM | 0.75 nM | 5.2 nM | 76 nM | 95 nM | IC50 [21]: 4.6 nM |
